Here are results for three molecules from patent US9278094B2, “Treatments for depression and other diseases with a low dose agent” (PharmoRx Therapeutics, Inc., priority 2013, dated 2016).

Series [1] concerns patients with depression. Description: Patient responses to low dose naltrexone treatment of depression (case reports). As to the method:
Patient #1: A middle aged person suffered severe depression with recurrent major depressive episodes. […] The former pharmacologic regimen was otherwise unchanged.
Patient #3: A patient presented with treatment-resistant depression. The patient was also diagnosed with Attention Deficit Disorder. The patient initially was treated with s-citalopram 15 mg, augmented by dextro-amphetamine.
Patient #4: A patient weighing approximately 60 kg had suffered severe unremitting depression. […] Subsequently, the patient was prescribed 5 mg naltrexone daily with continuation of s-citalopram.
They were being treated with buproprion XL 300 mg, augmented with melatonin 3 mg and N-acetyl-cysteine 1200 mg.
Patient #6: A patient with multiple major depression episodes, anhedonia, apathy, low energy and poor sleep was being treated with duloxetine 60 mg and buproprion 75 mg, and mirtazpine 15 mg. […] They also called and e-mailed multiple times per day. They were being treated with Effexor XR 75 mg QHS, Xanax 0.5 mg, and Clonazepam 1.5 mg.
The patient was then co-administered 1 mg daily of naltrexone with pramipexole.
Patient #9: A middle-age person suffered severe depression with recurrent major depressive episodes and social anxiety. They were being treated with Adderall 10 mg, levothyroxine 50 mcg, and propranol 10 mg.

The subject of series [2] is patients with breakthrough depression (BTD). Description: Clinical testing of low dose naltrexone treatment of depression (double-blind, placebo-controlled). In kind it is in vivo, human.
For series [3] the following is noted: low dose naltrexone (e.g. less than 10 mg); cited from earlier work.
Series [4] deals with C-terminal pentapeptide of the scaffolding protein filamin A (Homo sapiens, UniProt P21333). To be noted: Wang, Frankfurt, & Burns, 2008; cited from earlier work.
Chain of C-terminal pentapeptide of the scaffolding protein filamin A (P21333 whole entry): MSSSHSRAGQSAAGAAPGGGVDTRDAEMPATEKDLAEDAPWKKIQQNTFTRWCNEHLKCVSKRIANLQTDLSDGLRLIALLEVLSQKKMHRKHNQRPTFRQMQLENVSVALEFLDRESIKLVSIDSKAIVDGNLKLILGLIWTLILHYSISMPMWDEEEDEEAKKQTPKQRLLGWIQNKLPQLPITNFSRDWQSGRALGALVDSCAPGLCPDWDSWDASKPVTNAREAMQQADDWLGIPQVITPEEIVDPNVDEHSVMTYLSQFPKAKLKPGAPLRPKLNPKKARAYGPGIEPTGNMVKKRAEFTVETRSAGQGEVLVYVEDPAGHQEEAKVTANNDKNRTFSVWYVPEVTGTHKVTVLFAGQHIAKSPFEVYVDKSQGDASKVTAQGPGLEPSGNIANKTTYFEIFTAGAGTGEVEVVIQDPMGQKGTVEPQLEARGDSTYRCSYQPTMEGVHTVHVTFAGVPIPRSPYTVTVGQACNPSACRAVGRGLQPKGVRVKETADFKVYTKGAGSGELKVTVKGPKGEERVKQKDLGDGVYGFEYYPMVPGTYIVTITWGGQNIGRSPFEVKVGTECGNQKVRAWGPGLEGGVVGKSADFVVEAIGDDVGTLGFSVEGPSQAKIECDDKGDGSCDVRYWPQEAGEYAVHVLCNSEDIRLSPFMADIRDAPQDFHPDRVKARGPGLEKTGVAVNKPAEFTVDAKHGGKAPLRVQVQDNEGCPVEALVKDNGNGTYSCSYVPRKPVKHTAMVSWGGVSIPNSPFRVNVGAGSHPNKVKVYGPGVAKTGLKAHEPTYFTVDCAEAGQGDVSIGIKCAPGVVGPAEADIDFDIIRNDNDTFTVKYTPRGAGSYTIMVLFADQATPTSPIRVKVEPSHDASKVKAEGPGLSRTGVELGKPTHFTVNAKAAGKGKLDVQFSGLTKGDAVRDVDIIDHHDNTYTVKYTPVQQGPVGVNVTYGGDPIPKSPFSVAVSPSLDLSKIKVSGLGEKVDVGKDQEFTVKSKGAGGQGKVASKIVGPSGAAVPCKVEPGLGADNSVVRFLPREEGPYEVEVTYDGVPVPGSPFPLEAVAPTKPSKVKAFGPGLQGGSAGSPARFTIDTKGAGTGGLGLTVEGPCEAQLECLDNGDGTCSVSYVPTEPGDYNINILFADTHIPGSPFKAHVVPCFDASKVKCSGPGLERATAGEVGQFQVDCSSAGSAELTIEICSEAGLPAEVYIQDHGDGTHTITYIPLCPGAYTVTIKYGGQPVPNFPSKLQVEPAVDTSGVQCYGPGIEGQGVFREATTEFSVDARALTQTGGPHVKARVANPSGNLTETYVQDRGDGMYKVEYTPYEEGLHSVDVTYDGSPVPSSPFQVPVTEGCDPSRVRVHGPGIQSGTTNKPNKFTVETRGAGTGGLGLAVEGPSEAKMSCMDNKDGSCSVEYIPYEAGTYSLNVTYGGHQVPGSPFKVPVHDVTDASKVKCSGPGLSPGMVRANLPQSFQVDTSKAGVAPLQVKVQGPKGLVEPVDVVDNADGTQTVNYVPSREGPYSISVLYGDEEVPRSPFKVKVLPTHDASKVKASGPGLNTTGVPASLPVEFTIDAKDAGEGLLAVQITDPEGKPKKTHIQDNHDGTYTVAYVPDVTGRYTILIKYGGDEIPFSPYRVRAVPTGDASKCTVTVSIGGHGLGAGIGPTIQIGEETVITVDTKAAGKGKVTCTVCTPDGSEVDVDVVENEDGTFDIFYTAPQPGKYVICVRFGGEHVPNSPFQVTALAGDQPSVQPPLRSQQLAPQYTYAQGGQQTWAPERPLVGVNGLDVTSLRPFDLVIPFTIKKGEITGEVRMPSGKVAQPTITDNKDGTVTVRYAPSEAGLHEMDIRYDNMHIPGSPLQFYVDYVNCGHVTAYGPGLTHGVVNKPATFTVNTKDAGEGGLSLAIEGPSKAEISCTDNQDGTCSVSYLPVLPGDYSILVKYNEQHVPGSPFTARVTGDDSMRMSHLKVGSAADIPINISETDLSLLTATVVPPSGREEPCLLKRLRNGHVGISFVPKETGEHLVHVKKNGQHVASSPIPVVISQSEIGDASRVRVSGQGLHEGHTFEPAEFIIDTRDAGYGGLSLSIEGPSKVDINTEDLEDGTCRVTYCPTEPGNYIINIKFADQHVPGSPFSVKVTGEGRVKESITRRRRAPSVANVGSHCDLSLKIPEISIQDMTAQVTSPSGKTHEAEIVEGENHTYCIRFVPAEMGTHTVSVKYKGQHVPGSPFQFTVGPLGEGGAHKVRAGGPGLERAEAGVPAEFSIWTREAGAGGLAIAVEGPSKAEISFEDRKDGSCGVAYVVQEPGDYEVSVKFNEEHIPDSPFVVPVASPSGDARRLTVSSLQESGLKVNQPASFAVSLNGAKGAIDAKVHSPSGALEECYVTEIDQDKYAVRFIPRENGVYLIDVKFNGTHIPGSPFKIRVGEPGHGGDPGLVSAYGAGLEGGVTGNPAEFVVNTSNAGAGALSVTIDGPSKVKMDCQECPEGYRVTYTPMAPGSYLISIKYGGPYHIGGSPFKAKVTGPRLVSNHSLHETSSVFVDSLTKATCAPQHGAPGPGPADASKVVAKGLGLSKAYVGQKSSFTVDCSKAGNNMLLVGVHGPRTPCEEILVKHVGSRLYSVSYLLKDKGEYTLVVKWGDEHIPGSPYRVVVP
Series [5] deals with Restless Leg Syndrome (RLS). To be noted: RLS treated with D2/D3 agonists pramipexole or ropinirole; Philips Respironics Actigraphy; see U.S. Ser. No. 12/603,235; cited from earlier work.

As for `O=C1CCc2ccc(OCCCCN3CCN(c4cccc(Cl)c4Cl)CC3)cc2N1` [aripiprazole, 7-{4-[4-(2,3-Dichlorophenyl)piperazin-1-yl]butoxy}-3,4-dihydroquinolin-2(1H)-one], the “earlier response of depression” value in series [1] (Patient #1, in the past, before naltrexone) was “transiently responded”.

As a reminder, the Kd is the free concentration of one partner at which half of the binding sites on the other are occupied at equilibrium, for simple one-to-one binding. On to `O=C1CC[C@@]2(O)[C@H]3Cc4ccc(O)c5c4[C@@]2(CCN3CC2CC2)[C@H]1O5` [naltrexone, 17-(cyclopropylmethyl)-4,5α-epoxy-3,14-dihydroxymorphinan-6-one], for which the “rates of response on all outcome measures (HAM-D-17, HAM-D-28, MADRS-10, MADRS-15, CGI-S, CGI-I)” value in series [2] (1 mg bid, on antidepressant regimen containing a pro-dopaminergic agent, versus placebo, three weeks) is listed as “higher rates of response”. The persistence of response entry in series [2] (1 mg bid, patients on active drug followed six weeks) was “continued during the entire six week trial period”. Besides, in series [2] (compared to placebo controls), the “Quality of Life, Enjoyment, and Satisfaction Questionnaire (Q-LES-Q) score” value is on record as “greater improvement”; the “Sheehan Disability Scale (SDS) score” value was “greater improvement”. In addition, the “effects of opioid agonists” value in series [3] is reported as “enhance the effects of opioid agonists”. Further, the Kd in series [4] is less than 5 pM. In series [5], the “control of periodic limb movements of sleep” value was “equivalent control of limb movements at one-half the prior dose of D2/D3 agonists”. Besides, the “time to remission after initiating” value in series [1] (Patient #1, about 1 mg naltrexone daily) is given as “About one”. The “duration of maintained remission” value in series [1] (Patient #1, adjunctive naltrexone 1 mg daily, continuing to present) was “more than 6 months”. In series [1] (Patient #2), the “duration of maintained response” value is listed as “over 2 years” and the time to response is reported as no more than 2 weeks. Also, in series [1] (Patient #3, Attention Deficit Disorder, naltrexone 1 mg added, within days), the attention entry is “much improved”. Besides, the adverse effects reported entry in series [1] (Patient #3, naltrexone 1 mg) was “no adverse effects”. In addition, the mood response result in series [1] (Patient #3, naltrexone 1 mg added to s-citalopram 15 mg and dextro-amphetamine, within days) is on record as “marked lifting of mood”. In addition, the “duration of observation remaining euthymic” value in series [1] (Patient #4) is on record as “more than two”. In addition, the time to remission entry in series [1] (Patient #5) is on record as “two”. For the same molecule, the duration of improvement entry in series [1] (Patient #5, and continuing) is “five”. Also, the time to response result in series [1] (Patient #6) is on record as “one”. Also, in series [1] (Patient #7), the time to response entry is “three”.

Turning to `CCCN[C@H]1CCc2nc(N)sc2C1` [pramipexole, (S)—N^6-propyl-4,5,6,7-tetrahydro-1,3-benzothiazole-2,6-diamine], in series [1] (Patient #8, pramipexole without naltrexone), the “benefit in depression before naltrexone” value is reported as “limited benefit”.
